Substitutions are numbered along the chain they refer to. Active and inactive are the calls of the source.
How the values were obtained:
[1] = test system: T1, Serine/threonine-protein phosphatase 5 (Homo sapiens), P53041 [V429A]; assay: Activation of PP5 V429A mutant (unknown origin) using pNPP as substrate assessed as increase in phosphatase activity at 10 to 200 uM incubated for 30 mins by spectrophotometric analysis; details: dose 10-200 µM
T1 sequence (whole entry): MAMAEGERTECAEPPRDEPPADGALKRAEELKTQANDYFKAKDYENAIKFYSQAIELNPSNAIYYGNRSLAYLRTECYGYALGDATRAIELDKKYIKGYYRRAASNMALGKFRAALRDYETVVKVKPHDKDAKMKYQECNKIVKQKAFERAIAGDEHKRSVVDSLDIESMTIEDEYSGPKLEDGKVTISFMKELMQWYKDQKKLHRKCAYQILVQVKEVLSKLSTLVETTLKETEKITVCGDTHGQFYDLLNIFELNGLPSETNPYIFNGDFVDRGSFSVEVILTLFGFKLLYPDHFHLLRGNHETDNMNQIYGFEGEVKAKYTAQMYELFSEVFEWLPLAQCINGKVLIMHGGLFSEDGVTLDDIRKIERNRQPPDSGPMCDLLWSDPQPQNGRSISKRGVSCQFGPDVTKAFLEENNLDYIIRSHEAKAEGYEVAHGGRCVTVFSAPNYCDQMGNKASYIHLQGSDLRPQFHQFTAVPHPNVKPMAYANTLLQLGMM

[2] = molecular target: T2, Serine/threonine-protein phosphatase 5 (Homo sapiens) (UniProt P53041); assay: Induction of thermal stabilization of PP5 in human HCT-116 cells assessed as increase in melting temperature at 100 uM incubated for 12 hrs at 37 to 58 degreeC by CETSA; assay type: cell-based
T2 sequence (whole entry): T1 sequence (whole entry) with A429V

HCT-116 [3] = assay: Downregulation of AT13387-induced HSP27 expression in human HCT-116 cells at 50 uM incubated for 24 hrs by Western blot analysis; assay type: functional, cell-based
[4] = molecular target: T2, Serine/threonine-protein phosphatase 5 (Homo sapiens); assay: Binding affinity to His-tagged human PP5 TPR domain extracted from Escherichia coli BL21 by ITC analysis
SW-620 [5] = assay: Antiproliferative activity against human SW620 cells assessed as inhibition of cell proliferation at 1 to 100 uM incubated for 72 hrs by CCK8 assay; assay type: functional, cell-based; details: dose 1-100 µM
[6] = AUC (0 to t) in Sprague-Dawley rat at 10 mg/kg, ip measured after 8 hrs by LC-MS/MS analysis; assay type: ADME, organism-based; details: in vivo
[7] = test system: T1, Serine/threonine-protein phosphatase 5 (Homo sapiens), P53041 [V429A]; assay: Binding affinity to PP5 V429A mutant (unknown origin) by ITC analysis
SW-620 [8] = assay: Enhancement of HSP90 inhibitor AT13387-induced antiproliferative activity against human SW620 cells assessed as fold change in HSP90 inhibitor AT13387 IC50 at 50 uM incubated for 72 hrs by CCK8 assay; assay type: functional
HCT-116 [9] = assay: Effect on HSP27 expression level in human HCT-116 cells at 1 to 100 uM incubated for 24 hrs by Western blot analysis; assay type: functional, cell-based; details: dose 1-100 µM
HCT-116 [10] = assay: Downregulation of AT13387-induced HSP40 mRNA expression in human HCT-116 cells at 50 uM incubated for 24 hrs by qRT-PCR analysis; assay type: functional, cell-based
HCT-116 [11] = assay: Effect on AT13387-induced HSF1 expression in human HCT-116 cells at 50 uM incubated for 24 hrs by Western blot analysis; assay type: functional, cell-based
HCT-116 [12] = assay: Enhancement of HSP90 inhibitor AT13387-induced antiproliferative activity against human HCT-116 cells assessed as fold change in HSP90 inhibitor AT13387 IC50 at 50 uM incubated for 72 hrs by CCK8 assay; assay type: functional
[13] = Half-life in Sprague-Dawley rat at 10 mg/kg, ip measured after 8 hrs by LC-MS/MS analysis; assay type: ADME, organism-based; details: in vivo
[14] = molecular target: T2, Serine/threonine-protein phosphatase 5 (Homo sapiens); assay: Activation of PP5 in human HCT-116 cells assessed as decrease in intracellular S13 residue phosphorylated CDC37 level at 100 uM by Western blot analysis; assay type: cell-based; details: filed as activator, time <= 24.0 hrs, TDE = time-dependent effect
[15] = molecular target: T2, Serine/threonine-protein phosphatase 5 (Homo sapiens); assay: Binding affinity to His-tagged human PP5 extracted from Escherichia coli BL21 at 200 uM by STD-NMR analysis; details: filed as activator
[16] = molecular target: T2, Serine/threonine-protein phosphatase 5 (Homo sapiens); assay: Binding affinity to human PP5 extracted from Escherichia coli BL21 using CDC37 as substrate assessed as increase in dephosphorylation of p-CDC37 at S13 residue incubated for 1 hrs by Western blot analysis; details: filed as activator, dose 5-50 µM
[17] = test system: T3, Serine/threonine-protein phosphatase 5 (Homo sapiens), P53041 [E428A]; assay: Activation of PP5 E428A mutant (unknown origin) using pNPP as substrate assessed as increase in phosphatase activity at 10 to 200 uM incubated for 30 mins by spectrophotometric analysis; details: dose 10-200 µM
T3 sequence (whole entry): T1 sequence (whole entry) with E428A, A429V

[18] = molecular target: Serine/threonine-protein phosphatase PP1-beta catalytic subunit (Homo sapiens) (UniProt P62140); assay: Inhibition of PP1B (unknown origin) using DiFMUP as substrate at 0.01 to 1000 uM; details: dose 0.01-1000 µM
Serine/threonine-protein phosphatase PP1-beta catalytic subunit (Homo sapiens), sequence (P62140 whole entry): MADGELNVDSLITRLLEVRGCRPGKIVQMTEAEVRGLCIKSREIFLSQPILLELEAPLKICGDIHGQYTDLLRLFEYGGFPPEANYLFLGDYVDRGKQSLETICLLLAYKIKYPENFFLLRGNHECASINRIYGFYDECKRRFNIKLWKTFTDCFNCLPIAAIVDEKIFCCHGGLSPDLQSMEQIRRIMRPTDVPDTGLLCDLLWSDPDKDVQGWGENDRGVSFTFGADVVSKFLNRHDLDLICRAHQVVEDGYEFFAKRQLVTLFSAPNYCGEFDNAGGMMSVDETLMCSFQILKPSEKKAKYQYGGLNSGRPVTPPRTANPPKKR

N=c1oc2cc(F)cc(F)c2cc1C(N)=S
111 ng·h/mL: AUC(0-t) at 8 h [6]
2: fold change (FC) (SW-620 [8]) | fold change (FC) (HCT-116 [12])
inactive: Activity [1] | Activity [4] | Activity (SW-620 [5]) | Activity [7] | Activity (HCT-116 [9]) | Activity (HCT-116 [11]) | Activity [17] | inhibition [18]
1.59 h: half-life [13]
active: Activity (HCT-116 [3]) | Activity (HCT-116 [10]) | Activity [14] Tde | Activity [15] | Activity [16] Dose-Dependent Effect
1.48 °C: ΔTm [2]

— ChEMBL document CHEMBL5579878, “Allosteric Activation of Protein Phosphatase 5 with Small Molecules” (J Med Chem, 2024)
